The record followed here is patent US20220056015A1, “KIF18A INHIBITORS” (AMGEN INC., priority 2018, published 2022).

The term pIC50 denotes −log10 of the IC50, conventionally taken in molar units.

pIC50: −log10 of the molar value.

The target of the experiment is T1, Recombinant human KIF18A (1-467 His-tagged) protein (Homo sapiens, UniProt Q8NI77).
T1 construct: Recombinant human KIF18A (1-467 His-tagged) protein; His
T1 sequence (Q8NI77 1-467): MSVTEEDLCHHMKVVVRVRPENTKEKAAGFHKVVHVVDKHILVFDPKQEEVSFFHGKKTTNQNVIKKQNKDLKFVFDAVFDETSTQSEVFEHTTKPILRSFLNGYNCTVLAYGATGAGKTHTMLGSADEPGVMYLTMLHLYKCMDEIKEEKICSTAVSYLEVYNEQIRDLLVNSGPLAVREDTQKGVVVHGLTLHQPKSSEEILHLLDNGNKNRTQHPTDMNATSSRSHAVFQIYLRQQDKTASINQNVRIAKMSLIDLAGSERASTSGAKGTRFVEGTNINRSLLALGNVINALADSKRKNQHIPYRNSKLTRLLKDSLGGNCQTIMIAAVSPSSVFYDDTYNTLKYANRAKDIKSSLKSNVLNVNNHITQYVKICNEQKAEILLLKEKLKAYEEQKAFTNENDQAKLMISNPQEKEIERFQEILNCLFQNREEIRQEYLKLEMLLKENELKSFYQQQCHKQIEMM
T1 sequence (P02550 whole entry partner): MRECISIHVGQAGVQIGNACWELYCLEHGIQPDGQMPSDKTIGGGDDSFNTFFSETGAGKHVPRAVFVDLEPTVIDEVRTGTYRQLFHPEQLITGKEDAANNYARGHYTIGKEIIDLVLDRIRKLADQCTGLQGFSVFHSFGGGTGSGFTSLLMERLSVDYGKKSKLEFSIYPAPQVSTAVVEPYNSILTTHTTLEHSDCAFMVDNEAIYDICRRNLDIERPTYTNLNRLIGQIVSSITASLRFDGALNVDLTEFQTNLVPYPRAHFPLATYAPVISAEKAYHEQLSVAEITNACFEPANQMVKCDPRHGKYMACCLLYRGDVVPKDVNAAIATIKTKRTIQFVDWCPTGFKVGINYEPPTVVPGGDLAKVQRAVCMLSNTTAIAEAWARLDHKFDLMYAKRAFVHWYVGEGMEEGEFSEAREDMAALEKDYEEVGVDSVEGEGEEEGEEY
T1 sequence (P02554 whole entry partner): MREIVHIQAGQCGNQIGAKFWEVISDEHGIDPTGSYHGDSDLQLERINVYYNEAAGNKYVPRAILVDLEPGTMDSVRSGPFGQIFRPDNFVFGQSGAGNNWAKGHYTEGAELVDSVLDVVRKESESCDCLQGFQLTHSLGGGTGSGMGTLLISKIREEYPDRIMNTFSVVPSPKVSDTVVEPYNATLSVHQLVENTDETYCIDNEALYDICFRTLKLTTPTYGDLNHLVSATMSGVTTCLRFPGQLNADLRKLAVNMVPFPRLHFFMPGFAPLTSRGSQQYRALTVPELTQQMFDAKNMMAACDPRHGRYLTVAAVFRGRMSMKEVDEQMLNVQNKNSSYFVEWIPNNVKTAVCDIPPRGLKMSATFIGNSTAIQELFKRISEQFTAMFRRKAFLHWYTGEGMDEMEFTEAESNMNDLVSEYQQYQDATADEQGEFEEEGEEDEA
Kind of experiment: KIF18A Enzyme Assay: microtubule-stimulated ATPase activity assay (ADP-Glo). Type of experiment: biochemical. Particulars: 30 nM KIF18A, 30 μg/mL pig microtubules, ATP at Km 75 μM, room temperature, ADP-Glo luminescence. The source says:
KIF18A Enzyme Assay: Microtubule-stimulated ATPase activity assay is used to measure KIF18A enzyme activity after treatment with compound. Compounds were 2-fold serially diluted in DMSO (Sigma Inc) over 22-point concentration range. Recombinant human KIF18A (1-467 His-tagged) protein was expressed using a baculovirus system and purified by affinity chromatography by Amgen Inc. Concentrations of KIF18A protein, microtubules (MT), and ATP in the reaction were optimized for standardized homogenous enzyme assay using ADP-Glorm Kinase/ATPase Assay Kit (Promega Inc). The assay measures ADP formed from the ATPase reaction. […] Read luminescence using EnVision microplate reader with ultra-luminescence module (Perkin Elmer Inc). Concentration-response curve-fitting and ICn determination was performed using Genedata Screener Software (Standard 15.0.1, Genedata Inc) with a four-parameter logistic regression fit model.
A general note: ADP-Glo first removes unused ATP, then detects ADP through luciferase.
On to `Cc1cc(NC(=O)c2cnc(S(=N)(=O)C3CC3)cc2N2CCC3(CC2)CC3)nc(N2CCC(F)(F)CC2)n1` (single isomer, unassigned) [Example 4-1, 4-(6-Azaspiro[2.5]octan-6-yl)-6-(S-cyclopropylsulfonimidoyl)-N-(2-(4,4-difluoro-1-piperidinyl)-6-methyl-4-pyrimidinyl)-3-pyridinecarboxamide], for which the pIC50 was 6.58.

For `Cc1cc(NC(=O)c2cnc([S@@](=N)(=O)C3CC3)cc2N2CCC3(CC2)CC3)nc(N2CCC(F)(F)CC2)n1` (single isomer, unassigned) [Example 4-2, 4-(6-Azaspiro[2.5]octan-6-yl)-6-(R-cyclopropylsulfonimidoyl)-N-(2-(4,4-difluoro-1-piperidinyl)-6-methyl-4-pyrimidinyl)-3-pyridinecarboxamide], the pIC50 was 6.69.

Regarding `Cc1cc(NC(=O)c2ncc(S(=N)(=O)C3CC3)cc2N2CCC3(CC2)CC3)nc(N2CCC(F)(F)CC2)n1` (single isomer, unassigned) [Example 5-2, 3-(6-Azaspiro[2.5]octan-6-yl)-5-(S-cyclopropylsulfonimidoyl)-N-(2-(4,4-difluoro-1-piperidinyl)-6-methyl-4-pyrimidinyl)-2-pyridinecarboxamide], the pIC50 is 7.15.

Take `Cc1cc(NC(=O)c2ccc(NS(=O)(=O)CCO)nc2N2CCC3(CC2)CC3)nc(N2CCC(F)(F)CC2)n1` [Example 1, N-(2-(4,4-difluoropiperidin-1-yl)-6-methylpyrimidin-4-yl)-6-((2-hydroxyethyl)sulfonamido)-2-(6-azaspiro[2.5]octan-6-yl)nicotinamide]: the pIC50 is 7.51.

As to `Cc1cc(NC(=O)c2ccc(NS(=O)(=O)CCO)nc2N2CCC3(CC2)CC3)nc(N2CCO[C@H](C)C2)n1` [Example 1-1, (R)-6-((2-Hydroxyethyl)sulfonamido)-N-(6-methyl-2-(2-methylmorpholino)pyrimidin-4-yl)-2-(6-azaspiro[2.5]octan-6-yl)nicotinamide], the pIC50 is 6.40.

For `Cc1cc(NC(=O)c2ccc(NC3COC3)nc2N2CCC3(CC2)CC3)nc(N2CCO[C@H](C)C2)n1` [Example 2, (R)—N-(6-methyl-2-(2-methylmorpholino)pyrimidin-4-yl)-6-(oxetan-3-ylamino)-2-(6-azaspiro[2.5]octan-6-yl)nicotinamide], the pIC50 was 6.04.

Regarding `Cc1cc(NC(=O)c2ccc(NC3(C)COC3)nc2N2CCC3(CC2)CC3)nc(N2CCO[C@H](C)C2)n1` [Example 2-1, (R)-N-(6-Methyl-2-(2-methylmorpholino)pyrimidin-4-yl)-6-((3-methyloxetan-3-yl)amino)-2-(6-azaspiro[2.5]octan-6-yl)nicotinamide], the pIC50 is 6.45.

For `Cc1cc(NC(=O)c2ccc(NC3(CO)COC3)nc2N2CCC3(CC2)CC3)nc(N2CCO[C@H](C)C2)n1` [Example 2-2, (R)-6-((3-(Hydroxymethyl)oxetan-3-yl)amino)-N-(6-methyl-2-(2-methylmorpholino)pyrimidin-4-yl)-2-(6-azaspiro[2.5]octan-6-yl)nicotinamide], the pIC50 was 6.66.

With `Cc1cc(NC(=O)c2ccc(NC3(C)COC3)nc2N2CCC3(CC2)CC3)nc(N2CCC(F)(F)CC2)n1` [Example 2-3, N-(2-(4,4-Difluoropiperidin-1-yl)-6-methylpyrimidin-4-yl)-6-((3-methyloxetan-3-yl)amino)-2-(6-azaspiro[2.5]octan-6-yl)nicotinamide], the pIC50 is 6.34.

Turning to `Cc1cc(NC(=O)c2ccc(NC3(CO)COC3)nc2N2CCC3(CC2)CC3)nc(N2CCC(F)(F)CC2)n1` [Example 2-4, N-(2-(4,4-Difluoropiperidin-1-yl)-6-methylpyrimidin-4-yl)-6-((3-(hydroxymethyl)oxetan-3-yl)amino)-2-(6-azaspiro[2.5]octan-6-yl)nicotinamide], the pIC50 was 6.76.

Consider `Cc1cc(NC(=O)c2ccc(NC(C)(C)CO)nc2N2CCC3(CC2)CC3)nc(N2CCO[C@H](C)C2)n1` [Example 2-5, (R)-6-((1-Hydroxy-2-methylpropan-2-yl)amino)-N-(6-methyl-2-(2-methylmorpholino)pyrimidin-4-yl)-2-(6-azaspiro[2.5]octan-6-yl)nicotinamide], for which the pIC50 was 6.64.

As to `Cc1cc(NC(=O)c2ncc(NC(C)(C)CO)cc2N2CCC3(CC2)CC3)nc(N2CCC(F)(F)CC2)n1` [Example 2-6, N-(2-(4,4-Difluoropiperidin-1-yl)-6-methylpyrimidin-4-yl)-5-((1-hydroxy-2-methylpropan-2-yl)amino)-3-(6-azaspiro[2.5]octan-6-yl)picolinamide], the pIC50 is 6.91.

As for `Cc1cc(NC(=O)c2cnc(NC(C)(C)CO)nc2N2CCC3(CC2)CC3)nc(N2CCC(F)(F)CC2)n1` [Example 2-7, N-(2-(4,4-Difluoropiperidin-1-yl)-6-methylpyrimidin-4-yl)-2-((1-hydroxy-2-methylpropan-2-yl)amino)-4-(6-azaspiro[2.5]octan-6-yl)pyrimidine-5-carboxamide], the pIC50 is 7.26.

As for `Cc1cc(NC(=O)c2ncc(NC(C)(C)CO)nc2N2CCC3(CC2)CC3)nc(N2CCC(F)(F)CC2)n1` [Example 2-8, N-(2-(4,4-Difluoropiperidin-1-yl)-6-methylpyrimidin-4-yl)-5-((1-hydroxy-2-methylpropan-2-yl)amino)-3-(6-azaspiro[2.5]octan-6-yl)pyrazine-2-carboxamide], the pIC50 is 7.06.

As to `Cc1cc(NC(=O)c2ncc([S@](=N)(=O)C3CC3)cc2N2CCC3(CC2)CC3)nc(N2CCC(F)(F)CC2)n1` [Example 5-1, 3-(6-Azaspiro[2.5]octan-6-yl)-5-(R-cyclopropylsulfonimidoyl)-N-(2-(4,4-difluoro-1-piperidinyl)-6-methyl-4-pyrimidinyl)-2-pyridinecarboxamide], the negative-log IC50 (pIC50) is 6.98.

Regarding `Cc1cc(NC(=O)c2ncc(NS(=O)(=O)CCO)cc2N2CCC3(CC2)CC3)nc(N2CCC(F)(F)CC2)n1` [Example 6, N-(2-(4,4-Difluoropiperidin-1-yl)-6-methylpyrimidin-4-yl)-5-((2-hydroxyethyl)sulfonamido)-3-(6-azaspiro[2.5]octan-6-yl)picolinamide], the pIC50 was 7.82.

Consider `Cc1cc(NC(=O)c2cnc(NS(=O)(=O)CCO)cc2N2CCC3(CC2)CC3)nc(N2CCC(F)(F)CC2)n1` [Example 7, N-(2-(4,4-Difluoropiperidin-1-yl)-6-methylpyrimidin-4-yl)-6-((2-hydroxyethyl)sulfonamido)-4-(6-azaspiro[2.5]octan-6-yl)nicotinamide], for which the negative logarithm of the IC50 (pIC50) is 7.89.

Consider `Cc1cc(NC(=O)c2cnc(NS(=O)(=O)CCO)nc2N2CCC3(CC2)CC3)nc(N2CCC(F)(F)CC2)n1` [Example 7-1, N-(2-(4,4-difluoropiperidin-1-yl)-6-methylpyrimidin-4-yl)-2-((2-hydroxyethyl)sulfonamido)-4-(6-azaspiro[2.5]octan-6-yl)pyrimidine-5-carboxamide], for which the pIC50 was 6.57.

Turning to `Cc1cc(NC(=O)c2ncc(S(=O)(=O)C3CC3)cc2N2CCC3(CC2)CC3)nc(N2CCC(F)(F)CC2)n1` [Example 8, 5-(Cyclopropylsulfonyl)-N-(2-(4,4-difluoropiperidin-1-yl)-6-methylpyrimidin-4-yl)-3-(6-azaspiro[2.5]octan-6-yl)picolinamide], the pIC50 is 7.04.

Turning to `Cc1cc(NC(=O)c2cc(NCCO)ncc2N2CCC3(CC2)CC3)nc(N2CCC(F)(F)CC2)n1` [Example 9, N-(2-(4,4-Difluoropiperidin-1-yl)-6-methylpyrimidin-4-yl)-2-((2-hydroxyethyl)amino)-5-(6-azaspiro[2.5]octan-6-yl)isonicotinamide], the pIC50 was 6.40.

Turning to `Cc1cc(NC(=O)c2ncc(NS(=O)(=O)CCO)nc2N2CCC3(CC2)CC3)nc(N2CCC(F)(F)CC2)n1` [Example 10, N-(2-(4,4-Difluoropiperidin-1-yl)-6-methylpyrimidin-4-yl)-5-((2-hydroxyethyl)sulfonamido)-3-(6-azaspiro[2.5]octan-6-yl)pyrazine-2-carboxamide], the pIC50 was 7.10.

`O=C(Nc1ccc(NS(=O)(=O)CCO)cc1N1CCC2(CC1)CC2)c1ccnc(N2CCC(F)(F)CC2)c1` [Example 11, 2-(4,4-Difluoropiperidin-1-yl)-N-(4-((2-hydroxyethyl)sulfonamido)-2-(6-azaspiro[2.5]octan-6-yl)phenyl)isonicotinamide]: the pIC50 is 7.57.
